Two molecules from patent publication US10882882B2, “Post fermented tea-derived kaempferol-based compound” (AMOREPACIFIC CORPORATION, priority 2016, dated 2021) can be followed below.

This test concerns the target T1, beta amyloid (Aβ1-42) (Homo sapiens, UniProt P05067).
T1 construct: beta amyloid (Aβ1-42, AnaSpec Inc, USA); purchased AnaSpec Inc, USA
Nature of the test: Inhibition of beta amyloid aggregation, fluorescence analysis (ThioflavinT assay). Format: biochemical. The settings on record: for Increased RFU (% of Pos. Cont.): Pos. Cont. (beta amyloid only) = 100; for inhibition of beta amyloid aggregation as compared with the positive control group: positive control (only beta amyloid, no compound) taken as 100%. As to the method:
The effect of kaempferol3-O-[2-O″-(E)-p-coumaroyl][beta-D-glucopyranosyl-(1→3)-O-alpha-L-rhamnopyranosyl-(1→6)-O-beta-D-glucopyranoside] on inhibition of beta amyloid aggregation was confirmed by the fluorescence analysis (ThioflavinT assay). Specifically, beta amyloid (Aβ1-42, AnaSpec Inc, USA) was obtained and used at a concentration of 0.1 mg/ml and stored at −80° C. before use. Morin (20 μM), phenol red (20 μM), and kaempferol3-O-[2-O″-(E)-p-coumaroyl][beta-D-glucopyranosyl-(1→3)-O-alpha-L-rhamnopyranosyl-(1→6)-O-beta-D-glucopyranoside] (1 mg/ml) were respectively diluted with DMSO so as to be adjusted to the concentrations. In order to specify the degree of inhibition of Aβ1-42 aggregation, each of the compounds prepared at the above concentrations was diluted with 50 μL of 0.01 M sodium phosphate buffer solution to have a concentration of 10 μM, then 40 μL of 0.1 mg/ml of Aβ1-42 was added thereto, and then 10 μl of 2 mM thioflavinT was added thereto, and fluorescence was measured using a fluorescence spectrometer (RF-5300PC, SHIMADZU CORPORATION, Japan) at 37° C. for 150 minutes at intervals of 5 minutes. In the above table, “RFU” denotes the relative fluorescence unit, and “Increased RFU” denotes the amount of aggregated beta amyloid, and “Increased RFU (% of Pos.Cont.)” denotes the percentage value of the amount of aggregated beta amyloid with respect to that of the positive control group. “Novel substance 33” denotes kaempferol3-O-[2-O″-(E)-p-coumaroyl][beta-D-glucopyranosyl-(1→3)-O-alpha-L-rhamnopyranosyl-(1→6)-O-beta-D-glucopyranoside].

The mark [1] stands for this setting: compound 10 μM, Aβ1-42 0.1 mg/ml, 37° C., 150 minutes.

T1 sequence (P05067 672-713 limits assumed): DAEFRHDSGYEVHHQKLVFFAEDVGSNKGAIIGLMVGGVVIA

Consider `O=c1c(O)c(-c2ccc(O)cc2O)oc2cc(O)cc(O)c12` [Morin], for which the “inhibition of beta amyloid aggregation as compared with the positive control group” value is reported as 21.4%. Besides, the “Increased RFU (% of Pos. Cont.)” value under setting [1] is recorded as 78.6%. The “Increased RFU (amount of aggregated beta amyloid)” value (compound 10 μM, Aβ1-42 0.1 mg/ml, thioflavinT, 37° C., 150 minutes) worked out at 11471 RFU.

Turning to `O=S1(=O)OC(c2ccc(O)cc2)(c2ccc(O)cc2)c2ccccc21` [Phenol Red], the “inhibition of beta amyloid aggregation as compared with the positive control group” value was found to be 6.4%. Besides, the “Increased RFU (% of Pos. Cont.)” value under setting [1] turned out to be 93.6%.
